What was measured:
[1] = system: Fusarium nivale (var. majus); experiment: Fusarium nivale (var. majus) test (wheat) / preventive; type: in vivo; conditions: 500 ppm of active ingredient, evaluated 5 days after inoculation
Excerpt: Solvent: 49 parts by weight of N,N-dimethylacetamide Emulsifier: 1 part by weight of alkylaryl polyglycol ether […] To test for preventive activity, young plants are sprayed with the preparation of active compound or active compound combination at the stated rate of application. After the spray coating has been dried, the plants are slightly injured by using a sandblast and afterwards they are sprayed with a conidia suspension of Fusarium nivale (var. majus). The plants are placed in the greenhouse under a translucent incubation cabinet at a temperature of approximately 10° C. and a relative atmospheric humidity of approximately 100%.

Phakopsora pachyrhizi = experiment: In vivo Phakopsora test (soybeans) / preventive; conditions: 10 ppm of active ingredient, evaluated 7 days after inoculation
[2] = logP by HPLC on reversed phase columns (EEC directive 79/831 Annex V.A8); type: physicochemical; conditions: method [a]: LC-MS at pH 2.7, 0.1% formic acid in water / acetonitrile
Procedure: Measurement of log P values was performed according EEC directive 79/831 Annex V.A8 by HPLC (High Performance Liquid Chromatography) on reversed phase columns with the following methods: ^[a] Measurement of LC-MS was done at pH 2.7 with 0.1% formic acid in water and with acetonitrile (contains 0.1% formic acid) as eluent with a linear gradient from 10% acetonitrile to 95% acetonitrile. ^[b] Measurement with LC-MS was done at pH 7.8 with 0.001 molar ammonium hydrogen carbonate solution in water as eluent with a linear gradient from 10% acetonitrile to 95% acetonitrile.

Pyrenophora teres = experiment: In vivo preventive test on Pyrenophora teres (net blotch on barley); conditions: 500 ppm, barley plants, preventive spray, grading 14 days after contamination
Procedure: Barley plants (“Plaisant” variety), sown in starter cups on a 50/50 peat soil-pozzolana substrate and grown at 22° C., are treated at the 1-leaf stage (10 cm height) by spraying with the active ingredient prepared as described above. Plants, used as controls, are treated with the mixture of acetone/tween/DMSO/water not containing the active material. After 24 hours, the plants are contaminated by spraying the leaves with an aqueous suspension of Pyrenophora teres spores (12 000 spores per ml). The spores are collected from a 12-day-old culture. The contaminated barley plants are incubated for 48 hours at 20° C. and at 100% relative humidity, and then for 12 days at 20° C. at 70-80% relative humidity. Grading (% of efficacy) is carried out 14 days after the contamination, in comparison with the control plants.

Septoria tritici = experiment: In vivo preventive test on Septoria tritici (leaf spot on wheat); conditions: 500 ppm, wheat plants, preventive spray, grading 24 days after contamination
Procedure: Wheat plants (“Scipion” variety), sown in starter cups on a 50/50 peat soil-pozzolana substrate and grown at 22° C., are treated at the 1-leaf stage (10 cm height) by spraying with the active ingredient prepared as described above. Plants, used as controls, are treated with the mixture of acetone/tween/DMSO/water not containing the active material. After 24 hours, the plants are contaminated by spraying the leaves with an aqueous suspension of cryopreserved Septoria tritici spores (500 000 spores per ml). The contaminated wheat plants are incubated for 72 hours at 18° C. and at 100% relative humidity, and then for 21 days at 90% relative humidity. Grading (% of efficacy) is carried out 24 days after the contamination, in comparison with the control plants.

Puccinia recondita = experiment: In vivo preventive test on Puccinia recondita (brown rust on wheat); conditions: 500 ppm, wheat plants, preventive spray, grading 12 days after contamination
Procedure: (§1) The active ingredients tested are prepared by homogenization in a mixture of acetone/tween/DMSO, and then diluted with water to obtain the desired active material concentration.
Wheat plants (“Scipion” variety), sown in starter cups on a 50/50 peat soil-pozzolana substrate and grown at 22° C., are treated at the 1-leaf stage (10 cm height) by spraying with the active ingredient prepared as described above. Plants, used as controls, are treated with the mixture of acetone/tween/DMSO/water not containing the active material.
(§2) After 24 hours, the plants are contaminated by spraying the leaves with an aqueous suspension of Puccinia condita spores (100 000 spores per ml). The spores are collected from an infected plant and are suspended in water containing 2.5 ml/l of Tween 80 at 10%. The contaminated wheat plants are incubated for 24 hours at 20° C. and at 100% relative humidity, and then for 10 days at 20° C. and at 70-80% relative humidity.
(§3) Grading (% of efficacy) is carried out 12 days after the contamination, in comparison with the control plants.

Uromyces appendiculatus = experiment: In vivo preventive test on Uromyces appendiculatus (bean rust); conditions: 500 ppm, bean plants, preventive spray, grading 11 days after contamination
Procedure: as §1
Bean plants (“Saxa” variety), sown in starter cups on a 50/50 peat soil-pozzolana substrate and grown at 24° C., are treated at the 2-leaf stage (9 cm height) by spraying with the active ingredient prepared as described above. Plants, used as controls, are treated with the mixture of acetone/tween/DMSO/water not containing the active material.
as §2, with “of Uromyces appendiculatus” for “of Puccinia condita”, “spores (150” for “spores (100”, “from” for “from an”, “infected plants” for “infected plant”, “contaminated bean” for “contaminated wheat”
Grading (% of efficacy) is carried out 11 days after the contamination, in comparison with the control plants.

Sphaerotheca fuliginea = experiment: In vivo preventive test on Sphaerotheca fuliginea (powdery mildew on cucurbits); conditions: 500 ppm, gherkin plants, preventive spray, grading 12 days after contamination
Procedure: (§4) The active ingredients tested are prepared by homogenization in a mixture of acetone/tween/DMSO and then diluted with water to obtain the desired active material concentration.
(§5) Gherkin plants (“Vert petit de Paris” variety), sown in starter cups on a 50/50 peat soil-pozzolana substrate and grown at 24° C., are treated at the Z11 cotyledon stage by spraying with the active ingredient prepared as described above. Plants, used as controls, are treated with the mixture of acetone/tween/DMSO/water not containing the active material.
After 24 hours, the plants are contaminated by spraying the cotyledons with an aqueous suspension of Sphaerotheca fuliginea spores (100 000 spores per ml). The spores are collected from infected plants. The contaminated gherkin plants are incubated at about 20° C. and at 70-80% relative humidity.
as §3

Botrytis cinerea = experiment: In vivo preventive test on Botrytis cinerea (grey mould), gherkin plants; conditions: 500 ppm, preventive spray, grading 4 to 5 days after contamination
Procedure: as §4, §5
After 24 hours, the plants are contaminated by spraying the cotyledons with an aqueous suspension of cryopreserved Botrytis cinerea spores (50 000 spores per ml). The spores are suspended in a nutrient solution composed of 10 g/L of PDB, 50 g/L of D-Fructose, 2 g/L of NH4NO3 and 1 g/L of KH2PO4. The contaminated gherkin plants are incubated at 17° C. and at 90% relative humidity.
Grading (% of efficacy) is carried out 4 to 5 days after the contamination, in comparison with the control plants.

Row | logP [2] | SMILES | Eff. % [1] [%] | Eff. % (Phakopsora pachyrhizi) [%] | Eff. % (Pyrenophora teres) [%] | Eff. % (Septoria tritici) [%] | Eff. % (Puccinia recondita) [%] | Eff. % (Uromyces appendiculatus) [%] | Eff. % (Sphaerotheca fuliginea) [%] | Eff. % (Botrytis cinerea) [%]
1 | – | Cn1nc(C(F)F)c(C(=O)Nc2cccc3c2C(C)(C)OC3(C)C)c1F [Example 1] | 92 | – | – | – | – | – | – | –
2 | – | Cn1nc(C(F)F)c(C(=O)Nc2cccc3c2C(C)(C)OC3(C)C)c1Cl [Example 2] | 86 | 96 | – | – | – | – | – | –
3 | 3.27[a] | CCC1(CC)OC(C)c2c(NC(=O)c3c(C(F)F)nn(C)c3F)cccc21 (stereo not shown) [Example 13] | – | – | 83 | 79 | 100 | 100 | 100 | 100

Reference: patent publication US9375006B2, “5- halogenopyrazole benzofuranyl carboxamides” (BAYER CROPSCIENCE AG, priority 2012, dated 2016)
